Several values for one entry are separate records, joined by “and”; a condition that tells them apart may be missing. Equal entries are not always repeated. Structures can show the parent of a compound that is named as a salt. Where two headings read alike, the source gives them in different places.
Key:
EP4 receptor (PTGER4) = biological target: T1, EP4 receptor (PTGER4) (Homo sapiens, UniProt P35408); assay: PathHunter β-Arrestin PTGER4 (EP4) antagonist assay against GP1681 at EC80; format: cell-based; details: for inhibition of GP1681 activity, in words: standard 10 μM top concentration
T1 construct: expressed in transfected cells; host or cells: PathHunter β-Arrestin PTGER4 (EP4) cell line
Procedure: This Example describes antagonist assay experiments performed with known EP4 receptor inhibitors. Agonist controls and antagonist binding studies were performed in the PathHunter® β-Arrestin PTGER4 (EP4) cell lines. The PathHunter® β-Arrestin assay monitors activation by bound ligands of a GPCR in a homogenous, non-imaging assay format using Enzyme Fragment Complementation (EFC) with β-galactosidase (β-Gal) as the functional reporter. A fresh 10 mM working stock of GP1681 was created in the vehicle (1×PBS, pH 7.4). Prior to setting up the GP1681-antagonist assays, the parameters of the GP1681 agonist assay were optimized for most efficient cellular activation and expression of the reporter molecule via GP1681 receptor (PTGER4) binding. Two different cell densities (5K vs 7.5K) and incubation temperatures (room temperature and 37 C) were evaluated in standard agonist format. […] Vehicle only controls (1×PBS, pH 7.4) were also included for each receptor cell line. Receptor binding activity was analyzed using CBIS data analysis suite (ChemInnovation Software, Inc., San Diego, CA, USA).
The percentage of activity was calculated using the following formula: % Activity=100%×(mean RLU of test sample−mean RLU of vehicle control)/(mean MAX control ligand−mean RLU of vehicle control). Dose curves were performed and EC50 values determined. In all rows, the assay was Arrestin, the assay target was PTGER4, and the result type was EC50 for all agonists, and IC50 for all antagonists. NI indicates no inhibition, N is number of replicates, K is cell density, and RT is room temperature.
All antagonist assays were carried out in duplicate with 10 individual concentrations of one of six antagonist compounds (commercially available from Cayman Chemical; Ann Arbor, MI, USA). […] For antagonist assays, data was normalized to the maximal and minimal response observed in the presence of EC80 ligand and vehicle. A three-fold dilution series of each compound was established with a parameters). […] Incubation was at 37° C. for 90-180 minutes after which cell wells were processed for signal detection. Microplates were read following signal generation with a PerkinElmer Envision™ instrument (Waltham, MA, USA) for chemiluminescent signal detection. Vehicle only controls (PBS, pH 7.4) were also included for each antagonist run. Receptor binding activity was analyzed using CBIS data analysis suite (ChemInnovation, CA, USA). […] Percentage inhibition was calculated using the following formula: % Inhibition=100%×(1−(mean RLU of test sample−mean RLU of vehicle control)/(mean RLU of EC80 control−mean RLU of vehicle control)). […] This molecule was included as a control molecule for Eurofins work.

DP1 receptor (PTGDR) = biological target: T2, DP1 receptor (PTGDR) (Homo sapiens, UniProt Q13258); assay: cAMP Hunter cell-based prostanoid receptor assay, DP receptor; details: HitHunter cAMP cell line
T2 construct: host or cells: cAMP Hunter (DP receptor) cell line
T2 sequence (Q13258 1-359): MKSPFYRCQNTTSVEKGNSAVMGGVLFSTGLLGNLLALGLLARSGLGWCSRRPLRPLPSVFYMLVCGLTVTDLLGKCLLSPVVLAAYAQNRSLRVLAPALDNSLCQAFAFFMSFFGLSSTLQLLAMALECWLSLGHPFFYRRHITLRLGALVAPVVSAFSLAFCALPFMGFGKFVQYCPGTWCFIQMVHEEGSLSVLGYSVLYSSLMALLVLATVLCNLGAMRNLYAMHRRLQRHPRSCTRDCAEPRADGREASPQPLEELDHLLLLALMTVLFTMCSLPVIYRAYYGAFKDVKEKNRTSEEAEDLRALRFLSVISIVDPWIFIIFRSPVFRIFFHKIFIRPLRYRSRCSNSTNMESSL
Procedure: (§1) DiscoverX cell-based ligand binding assays were performed in the PathHunter beta-arrestin (EP1, EP2, EP3, EP4, FP, IP, and TP receptors) or cAMP Hunter™ (DP receptor) cell lines.
(§2) Receptor binding studies were performed in either the PathHunter® b-Arrestin (EP1, EP2, EP3, EP4, FP, IP, and TP receptors) or cAMP Hunter™ (DP receptor) cell lines. A 10 mM working stock of GP1681 was created in 1×PBS, pH 7.4. All assays were carried out in duplicate with 10 individual concentrations of GP1681. A three-fold dilution series of GP1681 was established for the initial or pilot experiment with a starting concentration of 4 uM (starting concentration was chosen based on previous Gemmus Pharma preclinical experimental results).
(§3) GP1681 was incubated with cells lines at either 37° C. or room temperature, for 90-180 minutes (temperatures and incubation times are all dependent on established optimized procedures for each receptor cell line) after which cell wells were processed and signal production detected. […] Vehicle only controls (PBS, pH 7.4) were also included for each receptor cell line. Receptor binding activity was analyzed using CBIS data analysis suite (ChemInnovation, CA). The percentage of activity was calculated using the following formula: % Activity=100%×(mean RLU of test sample−mean RLU of vehicle control)/(mean MAX control ligand−mean RLU of vehicle control). Dose curves were performed and EC50 values determined.
(§4) The four assays were repeated with a higher starting concentration.
(§5) The second experimental run of the receptor binding assay was performed with these last four cell lines including GP1681 and their respective positive and negative (vehicle, PBS pH 7.4) controls. A 10 mM GP1681 working stock was again created in 1×PBS, pH 7.4. A three-fold serial dilution scheme was again used for GP1681 samples, starting this time at a concentration of 500 μM. The remainder of the second experimental run was performed in the same manner as run 1.

EP1 receptor (PTGER1) = biological target: T3, EP1 receptor (PTGER1) (Homo sapiens, UniProt P34995); assay: PathHunter beta-arrestin cell-based prostanoid receptor assay, EP1; details: β-Arrestin
T3 construct: host or cells: PathHunter beta-arrestin cell line
T3 sequence (P34995 1-402): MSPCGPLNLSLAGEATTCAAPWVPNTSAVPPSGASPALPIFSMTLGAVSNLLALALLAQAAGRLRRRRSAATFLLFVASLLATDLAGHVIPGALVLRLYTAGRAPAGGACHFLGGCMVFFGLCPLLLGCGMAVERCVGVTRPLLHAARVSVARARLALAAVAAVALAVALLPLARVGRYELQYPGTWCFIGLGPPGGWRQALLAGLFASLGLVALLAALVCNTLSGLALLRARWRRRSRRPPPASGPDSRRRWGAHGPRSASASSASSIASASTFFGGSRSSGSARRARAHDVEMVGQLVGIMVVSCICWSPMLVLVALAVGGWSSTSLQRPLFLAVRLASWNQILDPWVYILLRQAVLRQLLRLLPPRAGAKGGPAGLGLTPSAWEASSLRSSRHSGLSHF
Procedure: as §1, §2, §3, §4, §5

IP receptor (PTGIR) = biological target: T4, IP receptor (PTGIR) (Homo sapiens, UniProt P43119); assay: PathHunter beta-arrestin cell-based prostanoid receptor assay, IP
T4 construct: host or cells: PathHunter beta-arrestin cell line
Procedure: as §1, §2, §3

TP receptor (TBAX2R) = biological target: T5, TP receptor (TBAX2R) (Homo sapiens, UniProt P21731); assay: PathHunter beta-arrestin cell-based prostanoid receptor assay, TP; details: Run 1, GP1681 starting concentration 4 uM; β-Arrestin
T5 construct: host or cells: PathHunter beta-arrestin cell line
T5 sequence (P21731 1-343): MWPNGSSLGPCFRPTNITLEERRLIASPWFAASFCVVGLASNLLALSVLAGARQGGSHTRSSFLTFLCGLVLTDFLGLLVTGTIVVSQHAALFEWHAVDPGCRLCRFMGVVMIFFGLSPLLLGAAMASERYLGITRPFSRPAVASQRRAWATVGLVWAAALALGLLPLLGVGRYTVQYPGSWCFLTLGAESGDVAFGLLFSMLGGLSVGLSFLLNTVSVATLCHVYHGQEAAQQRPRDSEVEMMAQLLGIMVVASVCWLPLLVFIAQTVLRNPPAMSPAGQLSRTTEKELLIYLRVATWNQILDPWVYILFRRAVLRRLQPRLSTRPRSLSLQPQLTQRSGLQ
Procedure: as §1, §2, §3

[1] = 5K 37C, challenge with GP1681 at EC80 (45 μM), read-out: RC50 (μM) / IC50, antagonist
[2] = 5K 37C, GP1681 at EC80, read-out: IC50 for competitive inhibition of GP1681
[3] = Run 1, GP1681 starting concentration 4 uM, curve for GP1681 not fully sigmoidal
[4] = Run 2, GP1681 starting concentration 500 μM

T1 sequence (P35408 whole entry): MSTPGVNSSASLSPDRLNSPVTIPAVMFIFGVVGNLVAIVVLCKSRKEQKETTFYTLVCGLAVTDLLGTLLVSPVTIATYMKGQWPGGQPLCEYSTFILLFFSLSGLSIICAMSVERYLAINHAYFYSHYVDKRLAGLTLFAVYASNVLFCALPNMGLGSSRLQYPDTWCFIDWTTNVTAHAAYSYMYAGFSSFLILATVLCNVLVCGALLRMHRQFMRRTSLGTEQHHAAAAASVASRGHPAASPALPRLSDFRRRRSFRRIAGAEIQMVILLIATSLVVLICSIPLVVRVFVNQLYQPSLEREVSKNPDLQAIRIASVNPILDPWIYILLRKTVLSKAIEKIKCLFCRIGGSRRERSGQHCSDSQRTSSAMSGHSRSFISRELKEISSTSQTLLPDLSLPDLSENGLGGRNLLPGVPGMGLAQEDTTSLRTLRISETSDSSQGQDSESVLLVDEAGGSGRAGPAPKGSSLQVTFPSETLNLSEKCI
T4 sequence (P43119 whole entry): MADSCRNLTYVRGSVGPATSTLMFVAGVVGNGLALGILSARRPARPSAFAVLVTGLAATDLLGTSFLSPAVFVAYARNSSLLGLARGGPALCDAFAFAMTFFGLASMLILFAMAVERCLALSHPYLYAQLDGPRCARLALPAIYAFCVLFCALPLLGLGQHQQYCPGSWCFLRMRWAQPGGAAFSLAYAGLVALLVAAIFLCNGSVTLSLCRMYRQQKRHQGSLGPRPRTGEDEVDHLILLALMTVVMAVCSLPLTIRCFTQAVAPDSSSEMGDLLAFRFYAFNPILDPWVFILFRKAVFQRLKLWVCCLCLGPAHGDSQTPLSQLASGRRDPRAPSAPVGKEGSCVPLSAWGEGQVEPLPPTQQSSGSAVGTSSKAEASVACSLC

CCCCCC(O)CCC1CCC(=O)N1CCCCCCC(=O)O (stereo not drawn) [CAY10580]
IC50 (EP4 receptor (PTGER4); [1]): > 10 µM | complementary activity in antagonist assay, in words (EP4 receptor (PTGER4); only at 3 and 10 μM concentrations): low level of complementary activity | inhibition of GP1681 activity, in words (EP4 receptor (PTGER4); GP1681 at EC80): did not inhibit activity of GP1681

CCCCc1nn(-c2ccccc2C(F)(F)F)c(=O)n1Cc1ccc(-c2ccccc2S(=O)(=O)NC(=O)c2sccc2C)cc1 [L-161,982]
IC50 (EP4 receptor (PTGER4); [2]): 0.0339 µM | IC50 (EP4 receptor (PTGER4); [1]): 0.0339 µM

CCOc1c2c(c(OCC)c3ccccc13)C(=O)N(c1ccc(CC(=O)NS(=O)(=O)c3ccccc3)cc1)C2 [GW 627368X]
IC50 (EP4 receptor (PTGER4); [2]): 0.0442 µM | IC50 (EP4 receptor (PTGER4); [1]): 0.0442 µM

CCc1nc2c(C)nc(C)cc2n1-c1ccc(CCNC(=O)NS(=O)(=O)c2ccc(C)cc2)cc1 [CJ-023423]
IC50 (EP4 receptor (PTGER4); IC50 for competitive inhibition of GP1681, 5K 37C, GP1681 at EC80): 0.0265 µM | IC50 (EP4 receptor (PTGER4); RC50 (μM) / IC50, antagonist, 5K 37C, challenge with GP1681 at EC80 (45 μM)): 0.0265 µM and 0.0266 µM

CCCCC[C@H](O)/C=C/[C@H]1C(=O)C[C@H](O)[C@@H]1C/C=C\CCCC(=O)O [PDG2, PGD2, reference compound]
EC50 (DP1 receptor (PTGDR); [3]): 2.2 nM | EC50 (DP1 receptor (PTGDR); [4]): 1.2 nM

O=C(O)CC/C=C\CC[C@H]1[C@H](N2CCOCC2)C(=O)C[C@H]1OCc1ccc(-c2ccccc2)cc1 [AH 23848 (Ca salt)]
IC50 (EP4 receptor (PTGER4); [1]): > 10 µM | inhibition of GP1681 activity, in words (EP4 receptor (PTGER4); GP1681 at EC80): did not inhibit GP1681

CCCCC[C@H](O)/C=C/[C@H]1[C@H](O)CC(=O)[C@@H]1C/C=C\CCCC(=O)O [PGE2, Prostaglandin E2, reference compound]
EC50 (EP1 receptor (PTGER1); [3]): 4.9 nM | EC50 (EP1 receptor (PTGER1); [4]): 6.3 nM

CC#CCC(C)C(O)C=CC1C(O)CC2Oc3c(CCCC(=O)O)cccc3C21 (racemic) [Beraprost, 2,3,3a,8b-tetrahydro-2-hydroxyl-1-(3-hydroxyl-4-methyl-1-octen-6-ynyl)-1H-cyclopenta[b]benzofuran-5-butanoic acid, sodium salt]
EC50 (IP receptor (PTGIR)): 436 nM | fold lower affinity as compared to GP1681 for the IP receptor (IP receptor (PTGIR); ratio of EC50 values): about 4 fold

O=C(O)CCC/C=C\C[C@@H]1[C@@H](/C=C/[C@@H](O)COc2ccc(I)cc2)[C@H]2CC[C@@H]1O2 [I-BOP, reference compound]
EC50 (TP receptor (TBAX2R)): 32 nM

— patent publication US12042503B2, “Compositions and methods for treating coronavirus infections” (priority 2020, dated 2024)
